# Measured values taken from patent US20230257385A1, “SALT AND SOLID FORMS OF TABERNANTHALOG” (priority 2021, published 2023).
# Assay: Suspension equilibration of sorbate salt at 20 and 40° C. (Example 10, Experiments 3, 4, 9)
# Format: physicochemical
# Conditions: for Observations (t = 1 d @ 40° C.) / Observations (t = 10 d @ 40° C.) / Observations (t = 1 d @ 20° C.) / Observations (t = 10 d @ 20° C.): sorbate salt Form A in 5 vol solvent; for Observations (t = 1 d @ 40° C.) / Observations (t = 0 @ 40° C.) / XRPD (IPC, 6 d, wet) / XRPD (post oven dried) / Observations (t = 10 d @ 40° C.) / Observations (t = 1 d @ 20° C.) / Observations (t = 10 d @ 20° C.) / Observations (t = 0 @ 20° C.): one solvent per sample; for Observations (t = 0 @ 40° C.) / Observations (t = 0 @ 20° C.): sorbate salt Form A, ca. 50 mg in 5 vol solvent; for XRPD (IPC, 6 d, wet): moist pellet after 6 d; for XRPD (post oven dried): pellet after oven drying
# Protocol: The purpose of this panel is to determine if Form A evolves into a supra-ordinate form. The companion panel at 40° C. set-point is in place to detect enantiotropic behaviour via different relative proportions in different solvents. XRPD data of the moist pellets obtained from the suspension equilibration study at 20° C.
# The relevant solvent (5 vol) was added to the appropriate vial and the suspensions were stirred and warmed to the predetermined temperature with stirring. […]
# [1] = suspension equilibration at 40° C.
# [2] = suspension equilibration at 20° C.
Structure (SMILES),Observations (t = 1 d @ 40° C.),Observations (t = 0 @ 40° C.),"XRPD (IPC, 6 d, wet) [1]",XRPD (post oven dried) [1],Observations (t = 10 d @ 40° C.),also measured
CC=CC=CC(=O)O.COc1ccc2c3c([nH]c2c1)CCN(C)CC3 [Experiment 4-Sample F],Partial,Partial,Form A,Form A,,
CC=CC=CC(=O)O.COc1ccc2c3c([nH]c2c1)CCN(C)CC3 [Experiment 4-Sample D],Suspension,Suspension,Form A,Form A,Suspension,
C/C=C/C=C/C(=O)O.COc1ccc2c3c([nH]c2c1)CCN(C)CC3 [Experiment 3-Sample C],,,,,,"Observations (t = 1 d @ 20° C.): Suspension; Observations (t = 10 d @ 20° C.): Suspension; Observations (t = 0 @ 20° C.): Suspension; XRPD (IPC, 6 d, wet) [2]: Form A; XRPD (post oven dried) [2]: Form A"
CC=CC=CC(=O)O.COc1ccc2c3c([nH]c2c1)CCN(C)CC3 [Experiment 9-Sample C],,,,,,"XRPD (post Filter dried) (Experiment 9, suspension equilibration at 40° C., filter dried): Form A; XRPD (IPC, 5 d, wet) (Experiment 9, suspension equilibration at 40° C., targets Pattern #3, #4, #5): Form A"
C/C=C/C=C/C(=O)O.COc1ccc2c3c([nH]c2c1)CCN(C)CC3 [Experiment 4-Sample E],Solution,Partial,Pattern #5,,,
CC=CC=CC(=O)O.COc1ccc2c3c([nH]c2c1)CCN(C)CC3 [Experiment 4-Sample L],Suspension,Suspension,Form A,Form A,Suspension,
CC=CC=CC(=O)O.COc1ccc2c3c([nH]c2c1)CCN(C)CC3 [Experiment 4-Sample J],Suspension,Suspension,Form A,Form A,Suspension,
CC=CC=CC(=O)O.COc1ccc2c3c([nH]c2c1)CCN(C)CC3 [Experiment 3-Sample T],,,,,,Observations (t = 1 d @ 20° C.): Solution; Observations (t = 10 d @ 20° C.): Solution; Observations (t = 0 @ 20° C.): Solution
CC=CC=CC(=O)O.COc1ccc2c3c([nH]c2c1)CCN(C)CC3 [Experiment 4-Sample K],Suspension,Suspension,Form A,Form A,Suspension,
